Square brackets hold non-standard residues; d marks the D form. Peptide text beside a SMILES is read from it.
What was measured:
[1] = system: metalloproteases; assay: Metalloprotease inhibition in APP-overexpressing SH-SY5Y cells, 4-plex MSD; assay type: cell-based, human; details: supernatant
From the text: (§1) Using the ELISA Conversion Kit from Meso Scale Discovery (MSD, USA), an electrochemiluminescence-based assay was developed (neo-epitope specific Aβ34 and the sulfo-tagged 6E10 (binds to the N-terminus of human Aβ) or the sulfo-tagged 4G8 for murine samples (binds to the mid domain of Aβ)). High-bind or custom-printed 4-plex plates (using the mab34, 4G8 (Biolegend) for pan-Aβ assay, G2−10 for 1-plex Aβ40 assay, and MSD's validated mouse monoclonal anti-Aβ38, anti-Aβ40, as well as anti-Aβ42 antibodies, see MSD Aβ peptide V-PLEX) were blocked (MSD 5% Blocker A in PBS) for 1 h at 22° C. and washed three times with PBS-T for 1 min. at 22° C., loaded with SULFO-TAG™ 6E10 or 4G8 detection antibody (diluted to 1× in MSD Diluent 100) and sample or peptide calibrator (in MSD Diluent 35 or cell culture medium), and incubated for 16 h at 4° C. with shaking at 600 rpm. After three washing steps with PBS-T for 1 min. at 22° C., 150 μL 2×MSD read buffer were added per well. All plates were read using a MSD QuickPlex SQ 120 Imager and data analyzed using MSD Workbench® software. Standard curves were fitted using a non-linear four-parameter logistic fit with 1/y^2 weighting. The equation is: […]

[2] = system: metalloproteases; assay: Metalloprotease inhibition in BACE1-overexpressing SH-SY5Y cells, 4-plex MSD; assay type: cell-based, human; details: supernatant
From the text: as §1

[3] = Ex-vivo stability in mouse whole blood, MALDI-TOF MS; assay type: in vitro ADME; details: both sexes, C57BL/6, 24 h incubation, read-out: decrease of signal
Description: (§2) The stability of D-AIP in mouse plasma, blood and liver S-9 fraction was investigated to ascertain the metabolic resistance towards proteases and enzymatic activities in these matrices. Whole mouse blood obtained from healthy C57BL/6 male and female mice (6 mice in total) were collected in lithium heparin containing tubes, pooled and stored at 4° C. prior to its use. A fraction of the pooled blood was immediately centrifuged at 1500×g for 10 min at 4° C. to obtain the plasma. The whole blood and plasma samples were spiked with PBS (as control) or AIP (L-AIP, D-AIP or sD-AIP respectively) to make a final concentration of 1 ug/mL and incubated at 37° C. Initial samples were withdrawn to represent t=0 prior to incubation and others were withdrawn 1, 3 and 24 h respectively. Fresh mouse liver also obtained from C57BL/6 male and female mice were pooled, homogenized in 0.15 M Potassium chloride (KCl) and centrifuged at 9000×g. The supernatant represents liver homogenate (S-9) fraction which was mixed with other buffers to formulate the liver S-9 mix as previously described (Kolrep et al., 2017, Toxicol In Vitro, 42:161-170). Liver S-9 mix were spiked with AIP to make a final concentration of 1 μg/mL (L-AIP, D-AIP or sD-AIP respectively) and incubated at 37° C. Just after the addition of NADPH, 100 μL aliquot which represents t=0 samples were withdrawn and others were sampled accordingly at predetermined time points. 400 μL of ice cold MeOH was added to the spiked plasma, blood or liver S-9 fraction respectively, to precipitate the microsomal protein. The samples were then vigorously mixed for 30 s to facilitate extraction and centrifuged for 10 minutes at 13000 rpm, the supernatant was subjected to sample clean up by C18 ZipTip (EMD Millipore Corporation), the eluates were spotted with CHCA matrix on the ground steel MALDI-TOF target and analyzed with MALDI-TOF MS. Applying the t=0 peak area as 100% the intensities of the other time points were compared relatively for interpretation. […]

[4] = Ex-vivo stability in mouse liver S9-fraction, MALDI-TOF MS; assay type: in vitro ADME, C57BL/6 mice; details: mouse liver S-9 fraction, after 24 h
Description: as §2

[5] = mouse plasma; details: C57BL/6 male and female mice, 37° C., up to 24 h

CC(C)C[C@H](NP(=O)(O)O[C@@H]1O[C@@H](C)[C@H](O)[C@@H](O)[C@H]1O)C(=O)N[C@@H](Cc1c[nH]c2ccccc12)C(=O)O [PA, phosphoramidon]
increase of Aβ34 [1]: approximately 9 fold | increase of Aβ38, Aβ40, and Aβ42 [1]: 2-3 fold | Aβ38, Aβ40, and Aβ42 levels [2]: not significantly changed | increase of Aβ34 [2]: about 2.5 fold

C[C@H](O)[C@@H](NC(=O)[C@@H](Cc1ccccc1)NC(=O)[C@@H](CCCCN)NC(=O)[C@@H](CCCNC(=N)N)NC(=O)[C@@H](Cc1ccccc1)NC(=O)[C@H](N)CCC(=O)O)C(=O)NCC(=O)NCC(=O)O [sD-AIP, reference compound] (H-[dE][dF][dR][dK][dF][dT]GG-OH; N-terminus and C-terminus assumed)
metabolised at 24 h, 1 ug/mL [3]: ~50% | signal intensity compared to the unincubated sample [4]: four-fold reduced intensity

D-amino acids of RGTFEGKF (H-[dR]G[dT][dF][dE]G[dK][dF]-OH; N-terminus and C-terminus assumed; SMILES C[C@H](O)[C@@H](NC(=O)CNC(=O)[C@H](N)CCCNC(=N)N)C(=O)N[C@H](Cc1ccccc1)C(=O)N[C@H](CCC(=O)O)C(=O)NCC(=O)N[C@H](CCCCN)C(=O)N[C@H](Cc1ccccc1)C(=O)O)
not cleaved [5]: relatively stable over 24 h in mouse plasma

— patent US12613249B2 (THE ROYAL INSTITUTION FOR THE ADVANCEMENT OF LEARNING / …, priority 2019, dated 2026)
